Patent publication US10668094B2, “Selective inhibitors of Alpha2-containing isoforms of Na,K-ATPase and use thereof for reduction of intraocular pressure” (Yeda Research and Development Co. Ltd., priority 2015, dated 2020)
Read-outs that look alike come from different tables or passages of the source.

Experiments:
[1] = biological target: human Na,K-ATPase α1β1FXYD1 (Homo sapiens (Human), UniProt P05023); assay type: biochemical
[2] = biological target: human Na,K-ATPase α2β1FXYD1 (Homo sapiens, UniProt P50993); assay type: biochemical
[3] = test system: human Na,K-ATPase α2β1FXYD1; assay type: biochemical
[4] = biological target: human Na,K-ATPase α2β2FXYD1 (Homo sapiens (Human), UniProt P50993); assay type: biochemical
[5] = biological target: human Na,K-ATPase α2β3FXYD1 (Homo sapiens (Human), UniProt P50993+P54709); assay: biochemical; assay type: biochemical
[6] = test system: basal IOP in rabbits; assay: Basal IOP in rabbits, topical administration; assay type: in vivo, rabbit

CC1CN(CCC2CC2)CCC(O[C@@H]2[C@H](C)O[C@@H](O[C@@H]3[C@H](C)O[C@@H](O[C@H]4CC[C@@]5(C)C(CCC6C5C[C@H](O)[C@]5(C)[C@@H](C7=CC(=O)OC7)CC[C@]65O)C4)C[C@@H]3O)C[C@@H]2O)O1 (stereo partly shown) [DEcP]
Ki ([1]; read-out: Ki in nM ± SEM α1β1): 86.1 ± 7 nM | Ki ([2]; read-out: Ki in nM ± SEM α2β1): 14.3 ± 2 nM | Selectivity Ki ratio α1β1/α2β1 [3]: 6.02 | Selectivity Ki ratio α1β1/α2β2 [4]: 7.1 | Ki ([4]; read-out: Ki in nM ± SEM α2β2): 12.1 ± 1.9 nM | Selectivity Ki ratio α1β1/α2β3 [5]: 12.02 | selectivity for α2β3 over α1β1 (Ki α1β1:α2β3 ratio) [5]: 10-12 fold | Ki ([5]; read-out: Ki in nM ± SEM α2β3): 7.2 ± 1 nM

CC1CN(CC(F)(F)F)CCC(O[C@@H]2[C@H](C)O[C@@H](O[C@@H]3[C@H](C)O[C@@H](O[C@H]4CC[C@@]5(C)C(CCC6C5C[C@H](O)[C@]5(C)[C@@H](C7=CC(=O)OC7)CC[C@]65O)C4)C[C@@H]3O)C[C@@H]2O)O1 (stereo partly shown) [DCF3]
Ki ([1]; read-out: Ki in nM ± SEM α1β1): 119 nM | Ki ([2]; read-out: Ki in nM ± SEM α2β1): 28.6 ± 0.9 nM | Selectivity Ki ratio α1β1/α2β1 [3]: 4.1 | Selectivity Ki ratio α1β1/α2β2 [4]: 6.5 | Ki ([4]; read-out: Ki in nM ± SEM α2β2): 18.1 ± 1.9 nM | Selectivity Ki ratio α1β1/α2β3 [5]: 9.6 | Ki ([5]; read-out: Ki in nM ± SEM α2β3): 12.4 ± 1.5 nM

CC1CN(Cc2ccccc2)CCC(O[C@@H]2[C@H](C)O[C@@H](O[C@@H]3[C@H](C)O[C@@H](O[C@H]4CC[C@@]5(C)C(CCC6C5C[C@H](O)[C@]5(C)[C@@H](C7=CC(=O)OC7)CC[C@]65O)C4)C[C@@H]3O)C[C@@H]2O)O1 (stereo partly drawn) [DBz, 4-(3S,5R,8R,9S,10S,12R,13S,14S,17R)-3-(((2S,4S,5R,6R)-5-(((2S,4S,5S,6R)-5 ((4-benzyl-2-methyl-1,4-oxazepan-7-yl)oxy)-4-hydroxy-6-methyltetrahydro-2H-pyran-2-ypoxy)-4-hydroxy-6-methyltetrahydro-2H-pyran-2-yl)oxy)-12,14-dihydroxy-10,13-dimethythexadecahydro-1H-cyclopenta[a]phenanthren-17-yl)furan-2(5H)-one]
Ki ([1]; read-out: Ki in nM ± SEM α1β1): 57.9 ± 15.5 nM | Ki ([2]; read-out: Ki in nM ± SEM α2β1): 10.1 ± 2.2 nM | Selectivity Ki ratio α1β1/α2β1 [3]: 5.7 | Selectivity Ki ratio α1β1/α2β2 [4]: 8.5 | Ki ([4]; read-out: Ki in nM ± SEM α2β2): 6.8 ± 1.2 nM | Selectivity Ki ratio α1β1/α2β3 [5]: 10.3 | selectivity for α2β3 over α1β1 (Ki α1β1:α2β3 ratio) [5]: 10-12 fold | Ki ([5]; read-out: Ki in nM ± SEM α2β3): 5.6 ± 1.6 nM

CC1CN(CC2CC(C)(C)C2)CCC(O[C@@H]2[C@H](C)O[C@@H](O[C@@H]3[C@H](C)O[C@@H](O[C@H]4CC[C@@]5(C)C(CCC6C5C[C@H](O)[C@]5(C)[C@@H](C7=CC(=O)OC7)CC[C@]65O)C4)C[C@@H]3O)C[C@@H]2O)O1 (stereo partly drawn) [DMDMcB, 4-((3S,5R,8R,9S10S,12R,13S,14S,17R)-3-(((2S,4S,5R,6R)-5-(((2S,4S,5S,6R)-5-((4-((3,3-dimethylcyclobutyl)methyl)-2-methyl-1,4-oxazepan-7-yl)oxy)-4-hydroxy-6-methyltetrahydro-2H-pyran-2-yl)oxy)-4-hydroxy-6-methyltetrahydro-2H-pyran-2-yl)oxy)-12,14-dihydroxy-10,13-dimethylhexadecahydro-1H-cyclopenta[a]phenanthren-17-yl)furan-2(5H)-one]
Ki ([1]; read-out: Ki in nM ± SEM α1β1): 31.6 ± 0.5 nM | Ki ([2]; read-out: Ki in nM ± SEM α2β1): 8.6 ± 1.4 nM | Selectivity Ki ratio α1β1/α2β1 [3]: 3.69 | Selectivity Ki ratio α1β1/α2β2 [4]: 6.16 | Ki ([4]; read-out: Ki in nM ± SEM α2β2): 5.1 ± 0.5 nM | Selectivity Ki ratio α1β1/α2β3 [5]: 8.19 | selectivity for α2β3 over α1β1 (Ki α1β1:α2β3 ratio) [5]: 10-12 fold | Ki ([5]; read-out: Ki in nM ± SEM α2β3): 3.9 ± 0.7 nM

CC1CN(CCS(C)(=O)=O)CCC(O[C@@H]2C(C)O[C@@H](OC3C(C)OC(O[C@H]4CC[C@@]5(C)C(CCC6C5CC(O)[C@]5(C)[C@@H](C7=CC(=O)OC7)CC[C@]65O)C4)C[C@@H]3O)C[C@@H]2O)O1 (stereo in doubt) [DESM, 4-((3S,5R,8R,9S,10S,12R,13S,14S,17R)-12,14-dihydroxy-3-(((2S,4S,5R,6R)-4-hydroxy-5-(((2S,4S,5S,6R)-4-hydroxy-6-methyl-5-((2-methyl-4-(2-(methylsulfonyl)ethyl)-1,4-oxazepan-7-yl)oxy)tetrahydro-2H-pyran-2-yl)oxy)-6-methyltetrahydro-2H-pyran-2-yl)oxy)-10,13-dimethylhexadecahydro-1H-cyclopenta[a]phenanthren-17-yl)furan-2(5H)-one]
Ki ([1]; read-out: Ki in nM ± SEM α1β1): 464 ± 14 nM | Ki ([2]; read-out: Ki in nM ± SEM α2β1): 49.2 ± 1.9 nM | Selectivity Ki ratio α1β1/α2β1 [3]: 9.4 | Selectivity Ki ratio α1β1/α2β2 [4]: 14.6 | Ki ([4]; read-out: Ki in nM ± SEM α2β2): 31.7 ± 3.2 nM | Selectivity Ki ratio α1β1/α2β3 [5]: 18.8 | Ki ([5]; read-out: Ki in nM ± SEM α2β3): 24.7 ± 2.1 nM

CC1CN(C2CC2)CCC(O[C@@H]2[C@H](C)O[C@@H](O[C@@H]3[C@H](C)O[C@@H](O[C@H]4CC[C@@]5(C)C(CCC6C5C[C@H](O)[C@]5(C)[C@@H](C7=CC(=O)OC7)CC[C@]65O)C4)C[C@@H]3O)C[C@@H]2O)O1 (stereo partly drawn) [DcP, 4-((3S,5R,8R,9S,10S,12R,13S,14S,17R)-3-(((2R,4S,5S,6R)-5-(((2S,4S,5S,6R)-5((4-cyclopropyl-2-methyl-1,4-oxazepan-7-yl)oxy)-4-hydroxy-6-methyltetrahydro-2H-pyran-2-yl)oxy)-4-hydroxy-6-methyltetrahydro-2H-pyran-2-yl)oxy)-12,14-dihydroxy-10,13-dimethythylhexadecahydro-1H-cyclopenta[a]phenanthren-17-yl)furan-2(5H)-one]
Ki ([1]; read-out: Ki in nM ± SEM α1β1): 109 ± 6.2 nM | Ki ([2]; read-out: Ki in nM ± SEM α2β1): 14.6 ± 11.6 nM | Selectivity Ki ratio α1β1/α2β1 [3]: 7.5 | Selectivity Ki ratio α1β1/α2β2 [4]: 8.5 | Ki ([4]; read-out: Ki in nM ± SEM α2β2): 13 ± 1.3 nM | Selectivity Ki ratio α1β1/α2β3 [5]: 13.4 | Ki ([5]; read-out: Ki in nM ± SEM α2β3): 8.1 ± 1.36 nM

[O]=[V]([OH])([OH])[OH] [Vanadate, vanadate, reference compound]
Ki ([1]; read-out: apparent vanadate affinity α1β1): 480 nM | Ki ([2]; Example 2, vanadate titration, read-out: apparent vanadate affinity α2β1): 3500 nM | Ki ([4]; read-out: apparent vanadate affinity α2β2): 34000 nM | Ki ([5]; read-out: apparent vanadate affinity α2β3): 1900 nM

CC(=O)O[C@H]1C[C@H](O[C@H]2[C@@H](OC(C)=O)C[C@H](O[C@H]3CC[C@@]4(C)[C@H](CC[C@@H]5[C@@H]4C[C@@H](OC(C)=O)[C@]4(C)[C@@H](C6=CC(=O)OC6)CC[C@]54O)C3)O[C@@H]2C)O[C@H](C)[C@H]1OC1CCN(C2CCC2)CC(C)O1 (stereo partly drawn) [TrisAcDcB, (2R,3R,4S,6R)-6-(((3S,5R,8R,9S,10S,12R,13S,14S,17R)-12-acetoxy-14-hydroxy-10,13-dimethyl-17-(5-oxo-2,5-dihydrofuran-3-yl)hexadecahydro-1H-cyclopenta[a]phenanthren-3-yl)oxy)-3-(((2S,4S,5R,6R)-4-acetoxy-5-((4-cyclobutyl-2-methyl-1,4-oxazepam-7-yl)oxy)-6-methyltetrahydro-2H-pyran-2-yl)oxy)-2-methyltetrahydro-2H-pyran-4-yl acetate]
Ki of α1β1 higher than that of DcB [1]: ~100 fold | Ki ([1]; read-out: Ki of α1β1FXYD1): 13200 ± 6500 nM | Ki of α2β1 higher than that of DcB [2]: ~300 fold | Ki ([2]; read-out: Ki of α2β1FXYD1): 2500 ± 490 nM | time of return of IOP to the control level ([6]; 0.05, 0.1, 0.2 mM): 12 h | time to minimum IOP ([6]; 0.05, 0.1, 0.2 mM): 5 to 6 h | maximal effect on IOP compared with parent DcB ([6]; 0.05-0.2 mM prodrug): essentially equal to that produced by the parent DcB | minimum IOP ([6]; from 15-16 mmHg, 0.05, 0.1, 0.2 mM): 12 mmHg | onset of effect on basal IOP ([6]; one 30 μl drop, 0.05, 0.1, 0.2 mM): no effect was observed at the first four hours

CC(C)OC(=O)CCC/C=C\C[C@@H]1[C@@H](CC[C@@H](O)CCc2ccccc2)[C@H](O)C[C@@H]1O [Latanoprost, reference compound]
time after which IOP returned to the control value ([6]; 1 mM DcB, 0.005% Latanoprost): 12 h | steady-state IOP as % of the unchanged control values ([6]; after 3-8 hours): 85% | steady-state IOP lower than basal IOP ([6]; after 3-8 hours, basal IOP 17-18 mmHg, 1 mM DcB, 0.005% Latanoprost): 2.6±0.11 mmHg
